Results as given in paper PMC7560342, “In Vitro and In Vivo Evaluation of the Toxic Effects of Dodecylguanidine Hydrochloride” (Toxics, 2020).
“Also recorded” adds a separate entry of the source.

Columns and labels:
A549 cells = assay: Cell membrane damage (LDH leakage) assay; assay type: cell-based, Human; conditions: 1–5000 μg/mL, 24 h
Procedure: Human adenocarcinomic alveolar epithelial (A549) cells were obtained from the Korea Cell Line Bank (Seoul, Korea). Cells were grown in RPMI 1640 medium (Thermo Fisher Scientific, Waltham, MA, USA), containing 10% heat-inactivated fetal bovine serum (Thermo Fisher Scientific, Waltham, MA, USA) and 1% penicillin-streptomycin (Thermo Fisher Scientific, Waltham, MA, USA) under standard cell culture conditions (37 °C, 5% CO2, and 90% humidity).
A549 cells (1 × 10^4 cells) were incubated in 96-well plates overnight, and various concentrations (1, 10, 100, 1000, and 5000 μg/mL) of the eight selected chemicals were added to the cell culture medium. After 24 h of incubation, cell morphology was observed by optical microscopy, and cell viability was evaluated using EZ-Cytox kit (DoGenBio, Seoul, Korea) by quantifying purple formazan crystals. The membrane integrity was examined using an EZ-lactate dehydrogenase (LDH) kit (DoGenBio, Seoul, Korea) to measure the LDH level released from the cytosol into the culture medium. Absorbance was measured using a microplate reader (Tecan, Salzburg, Austria) at a wavelength of 450 nm.

Sprague-Dawley rats [1] = assay: Acute inhalation study (4 h aerosol exposure); assay type: in vivo, rat
Procedure: Specific-pathogen-free (SPF) male and female Sprague-Dawley (six-week-old) rats were purchased from Orient Bio Inc. (Sungnam, Korea). The temperature and relative humidity of the animal maintenance room was set to 22 ± 3 °C and 30 to 70%, respectively, with a 12:12 h light/dark cycle. Diet (LabDiet 5053, Orient Bio Inc., Sungnam, Korea) and water were supplied ad libitum. Following an acclimatization period of one week, the rats were randomly divided into four groups (five males and five females per group) for the acute inhalation study. All animal experiments were approved by the Animal Care and Use Committee of the National Institute of Environmental Research, Republic of Korea (identification code: NIER-2019-01-01-011; date of approval: 15 May 2019). The left lung of the rats was used for histopathological analysis and the right lung was used for bronchoalveolar lavage fluid (BALF) analysis, including lung cell damage and pulmonary inflammation.
(§1) The inhalation aerosols of the DGH solutions were generated using an atomizer with a clean air flow of 250 L/min. […] In the acute toxicity test, all the rats in each group were sacrificed immediately after exposure. Temperature, humidity, air flow, and air pressure were monitored during the exposure using a Model VT3-X15 environmental controller (Sibata, Saitama, Japan). The concentration of DGH was analyzed by sampling the chamber air using a SIP-32L (Sibata, Saitama, Japan) and measuring the weight of the membranes (T60A20, Φ55). The mass median aerodynamic diameter (MMAD) and geometric standard deviation (GSD) of DGH in the exposure chamber were measured using an Andersen cascade impactor (AN-200, Sibata, Saitama, Japan).
Hematology and serum biochemistry of ten rats in each group were analyzed, as described in previous studies. Briefly, blood samples of the animals were drawn from the ventral aorta using a syringe, under anesthesia. The blood samples were collected into CBC bottles containing ethylenediaminetetraacetic acid (EDTA) (K2 EDTA, BD vacutainer) and analyzed within 15 min, using an automatic hematology LC-662G, Kyoto, Japan. The following parameters were determined: white blood cell count, red blood cell count, hemoglobin, hematocrit, mean corpuscular volume, mean corpuscular hemoglobin, mean corpuscular hemoglobin concentration, red blood cell volume distribution width, platelets, mean platelet volume, […], and platelet distribution width. Blood samples were drawn from the ventral aorta using a syringe and collected in a serum vacutainer. The sera were collected by centrifugation at 2000 rpm for 10 min within 2 h after collection and stored at −80 °C in a freezer, prior to analysis. The following serum biochemistry parameters were determined using an automatic serum analyzer (Drichem4000, Fuji Photo Film, Tokyo, Japan): alkaline phosphatase, lactate dehydrogenase (LDH), glucose, total cholesterol, glutamic oxaloacetate transaminase, glutamic pyruvate transaminase, urea nitrogen in blood, calcium, inorganic phosphorus, gamma glutamyl transferase, albumin, total protein, creatinine, total bilirubin, sodium, potassium, and chlorine.

Sprague-Dawley rats [2] = assay: Bronchoalveolar lavage fluid (BALF) analysis after acute inhalation; assay type: in vivo, rat
Procedure: as §1
BALF was obtained from the right lung by lavage (twice) with 3 mL phosphate buffered saline (PBS, pH 7.4, magnesium, and calcium free). The BALF samples were centrifuged (1500 rpm, 4 °C, 10 min) and the cell-free supernatant of the first lavage was used for the determination of LDH, total protein, and inflammatory cytokine levels. LDH activity was measured using the EZ-LDH kit (DoGenBio, Seoul, Korea). Total protein content was quantified using a BCA protein assay kit (iNtRON Biotechnology, Seoul, Korea). To evaluate the inflammatory cytokine levels in BALF, tumor necrosis factor-alpha (TNF-α), interleukin-6 (IL-6), interleukin-1 beta (IL-1β), […], and transforming growth factor-beta 1 (TGF-β1) were determined using a Quantikine® enzyme-linked immunosorbent assay kit (R&D Systems, Minneapolis, MN, USA), according to the manufacturer’s instructions. Cells in all lavages were resuspended in PBS, and the total cell count in BALF was quantified using a Vi-Cell® XR analyzer (Beckman Coulter, Brea, CA, USA). Differential cell counts were performed on cytospin preparations (Shadon, Pittsburgh, PA, USA), and the cells were stained with Diff-Quick (Fisher Scientific, Swedesboro, NJ, USA). Polymorphonuclear leukocytes (PMNs) in the BALF were counted using light microscopy (Olympus, Tokyo, Japan).

[3] = male rats, exposure groups, 4 h
[4] = rats, 8.6–68 mg/m^3, 4 h, vs control

CCCCCCCCCCCCN=C(N)N.Cl [DGH, Dodecylguanidine hydrochloride]
Cell membrane damage (LDH leakage) (A549 cells): significant dose-dependent damage to the cell membrane
Spleen weight (Sprague-Dawley rats [1]; male rats, exposed groups, 4 h): significantly decreased; also recorded: decreased significantly
Body weight vs control (Sprague-Dawley rats [1]; rats, 8.6–68 mg/m^3, 4 h): no significant changes
Deaths (Sprague-Dawley rats [1]; rats, 8.6–68 mg/m^3, 4 h): no deaths occurred; also recorded: no death
Hematology vs control (Sprague-Dawley rats [1]; rats, 8.6–68 mg/m^3, 4 h): no significant changes
Serum biochemistry vs control (Sprague-Dawley rats [1]; rats, 8.6–68 mg/m^3, 4 h): no significant changes
LC50 (inhalation) (Sprague-Dawley rats [1]; rats, exposure for 4 h, estimated): > 68 mg/m^3
IL-6 level in BALF compared to control groups (Sprague-Dawley rats [2]; [3]): about seven times
MIP-2 level in BALF compared to control groups (Sprague-Dawley rats [2]; [3]): about five times
Increase of ratio of PMNs in BALF (Sprague-Dawley rats [2]; male rats, high 68 mg/m^3, 4 h): > 204 fold
Increase of ratio of PMNs in BALF (Sprague-Dawley rats [2]; male rats, middle 21.3 mg/m^3, 4 h): more than 38.7 fold
Cytokines (MIP-2, TGF-β1, IL-1β, TNF-α, IL-6) in BALF (Sprague-Dawley rats [2]; rats, 8.6–68 mg/m^3, 4 h): increased in a concentration-dependent manner
LDH in BALF (Sprague-Dawley rats [2]; [4]): increased in a concentration-dependent manner; also recorded: significantly increased in all the exposed groups
PMNs in BALF (Sprague-Dawley rats [2]; [4]): increased in a concentration-dependent manner; also recorded: significant increase
Total protein in BALF (Sprague-Dawley rats [2]; [4]): significantly increased in all the exposed groups
